Tests used:
MDA-MB-231 cells = test: Cell viability of MDA-MB-231 cells treated with purified ELANE or ECP; format: cell-based, human; conditions: MDA-MB-231
Description: (§1) In vitro cell viability assays. […] Luminescence was measured using a Victor X3 luminometer (PerkinElmer).

[1] = tested on: Human monocyte-derived macrophages (HMDMs); test: Cell viability of HMDMs treated with purified ELANE or ECP; format: cell-based
Description: Primary human blood-derived cells.
as §1

[2] = tested on: tumors (MDA-MB-231, A549, MEL888, M1, 4195, E0771, LLC1, B16F10); test: Intra-tumoral treatment of tumor models (xenograft, PDX, syngeneic); format: in vivo, mice
Description: Tumor inoculation and treatment. MDA-MB-231 cells (2×10^6), A549 cells (2×10^6) with Matrix Type 3), or MEL888 cells (2×10^6 with Matrix Type 3) were injected into athymic nude mice (Charles River); M1 or 4195 cells (50,000) were injected into NOD.SCID mice (JAX); and E0771 cells (0.5×10^6), LLC1 cells (0.5×10^6), or B16F10 cells (1×10^6), were injected into C57BL/6 mice (JAX). For TNBC models (MDA-MB-231, E0771, M1, 4195), cells were injected into the 4th mammary fat pad of the right ventral side. For all other models (A549, LLC1, MEL888, B16F10), cells were injected into the flank. Once tumors reached ˜100 mm^3, ELANE or PMSF-ELANE (11.6 μg/100 μL), or neutrophil medias or HSA (50 μg/100 μL) were delivered IT once/day for 5 days. Tumor volume was assessed by calipers, and experiments were terminated when tumor volume in control mice reached >1000 mm^3.
Tumor immunohistochemistry. Tumors were fixed in 4% paraformaldehyde in PBS for 24 h, embedded in paraffin blocks, and sectioned (5 μm). Slides were stained with cCASP3 (9661) and cPARP (9625) antibodies from Cell Signaling Technology. Signals were developed using the VECTASTAIN ABC kit (Vector Laboratories) or fluorescently-labeled secondary antibodies (melanoma models). For the TUNEL assay, staining was performed with the DeadEnd™ colorimetric or fluorometric TUNEL systems (Promega). Cell nuclei were labeled with haematoxylin or Hoechst 33342 (ThermoFisher Scientific). Images were obtained with a Nikon Eclipse Ti2 microscope and analyzed using NIS-Elements software.

[3] = Assessment of potential side-effects in tumor-free C57BL/6 mice; format: in vivo
Description: Assessment of potential side-effects. ELANE or PMSF-ELANE (11.6 μg/100 μL) were injected into the 4th mammary fat pad of the right ventral side pad of tumor-free C57BL/6 mice once/day for 5 days. One day after the last injection, mice were studied for potential side-effects. Body weight and spleen weight were measured. Apoptosis at the injection site was studied by isolating, fixing, and staining mammary adipose tissue for TUNEL, cCASP3, and cPARP using identical methods described for tumors above. Mammary adipose tissue immune cell populations at the injection site were determined by flow cytometry using identical methods described for tumors above. Liver function was assessed by measuring plasma ALT activity with the Alanine Transaminase Colorimetric Activity Assays Kit (Cayman Chemical).

[4] = tested on: survival, stress, and apoptosis pathways in cancer cells; test: Killing program in cancer cells (western blot, mitochondrial ROS); format: cell-based; conditions: all 6 cancer cell lines tested
Description: (§2) Western Blot Analysis. Cells were lysed with 1% SDS containing protease and phosphatase inhibitors (Sigma), and protein was quantified with the BCA Protein Assay Kit (Pierce). Proteins (10-20 μg) were resolved on 10%, 12.5%, 15%, or 20% SDS-PAGE gels depending on the target protein, transferred to PVDF membranes (Millipore), blocked with 5% BSA (Sigma) in 0.1% TBS/Tween-20 at RT for 2 hrs, stained with primary and secondary antibodies, and visualized using the ECL detection kit (Biorad) and a LI-COR imager. Antibodies—Antibodies against pERK (4370), ERK (4695), pNFκB (3033), NFκB (8242), pJNK (4668), JNK (9252), CASP3 (9662), PARP (9542), H2AX (2595), TUBB (2125) were from Cell Signaling Technology. Antibodies against γH2AX (05-636-I, Millipore), ELANE (68672, Abcam), N-terminal CD95 (3070R, BioVision), and C-terminal CD95 (60196, Proteintech).
(§3) Mitochondrial ROS measurements. Cells were treated with various doses of ELANE for 30 min, washed, labeled with the CM-H2DCFDA dye (ThermoFisher Scientific, 10 μM) for 30 min at 37° C., and fluorescence was quantified by flow cytometry.

[5] = tested on: survival, stress, and apoptosis pathways in normal or non-cancer cells; test: Killing program in normal or non-cancer cells; format: cell-based
Description: as §2, §3

E0771 or MEL888 tumors = test: Resistance to ELANE, repeated treatment of tumors in vivo and killing ex vivo; design: species or system mice; conditions: once/day for 7 days, isolated cancer cells ex vivo
Text: To explore whether cancer cells could acquire resistance to ELANE, a combination of in vitro and in vivo approaches were used.

For “ELANE: neutrophil elastase, a serine protease released by human PMNs”, the “cell viability, purified protein” value (MDA-MB-231 cells) was “killed MDA-MB-231 cells in a dose-dependent manner”, the “cell viability, purified protein” value [1] was “did not kill Human monocyte-derived macrophages (HMDMs)” and the “therapeutic benefit, dose finding” value ([2]; E0771 TNBC model, IT, 12 μg/day) was “good therapeutic benefit that was reproducible”. The tumor growth ([2]; ELANE 12 μg/day IT, TNBC, lung cancer, melanoma models) was “attenuated tumor growth in all models tested”, the “staining for TUNEL, cPARP, and cCASP3 in tumors” value ([2]; ELANE IT) was “increase in staining for TUNEL, cPARP, and cCASP3 in all ELANE-treated tumors” and the “tumors with a crater” value ([2]; all immunocompetent models tested) was roughly 40%. The “craters in tumor-free mice and immunocompromised cancer models” value ([2]; mouse, in vivo) was “Craters were not observed”, the side effects ([3]; ELANE 12 μg/day into mammary fat pads) was “did not produce evident side effects” and the “apoptosis at injection site” value ([3]; ELANE injected into tumor-free C57BL/6 mice) was “no evidence of apoptosis was found”. The “DNA damage (γH2AX)” value [4] was “induced DNA damage”, the “mitochondrial ROS (MT ROS)” value [4] was “increased MT ROS” and the “pro-apoptotic pathways (cCASP3 and cPARP)” value [4] was “activated pro-apoptotic pathways”. For the same substance, the “survival pathways (phosphorylation of ERK, NFκB, or JNK)” value [4] was “suppressed at least one survival pathway”, the “killing program in normal or non-cancer cells” value [5] was “did not induce this program in all normal or non-cancer cells tested” and the “acquired resistance after repeated treatment in vivo” value (E0771 or MEL888 tumors) was “did not attenuate ELANE's ability to kill the isolated cancer cells ex vivo”.
